From patent publication US11578013B2, “Nitrification inhibitors” (Lincoln University, priority 2020, dated 2023)

Key:
[1] = tested on: nitrification in the soil; experiment: Laboratory soil incubation, Templeton sandy loam with synthetic cow urine, nitrate-N; settings: for nitrate-N concentration in the soil compared with urine alone or urine+DMSO / reducing the nitrification rate compared with DCD: day 30; for reducing the nitrification rate compared with DCD: compound at 2 kg/ha vs DCD at 10 kg/ha; for % reduction by NI (nitrate-N): vs urine alone, 30 days; for Nitrate-N: 30 days of incubation
Protocol: A Templeton sandy loam was used in this experiment. 500 g of soil (dry weight basis) was packed into a pottle. 50 mL of synthetic cow urine with an N concentration of 7 g N/L (comprising about 87% urea-N and 13% glycine-N) was applied to the soil (equivalent to 700 kg N/ha on weight basis, assuming bulk density of 1 g/cm^3 in the top 10 cm of soil). The 700 kg N/ha application was used to simulate the urine-N application rate under a typical dairy cow urine patch in a grazed pasture.
Control treatments also added to soil were: • urine alone (50 mL); • DMSO (equivalent to 0.9 mL/500 g soil)+urine (50 mL) to determine the effect of DMSO on nitrification rate; • water alone (50 mL) (simulating areas of the soil where no urine was deposited).
Pottles were covered with lids with breathing holes to allow for gas exchange during incubation. Pottles were incubated at 12° C. Soil moisture content was maintained at field capacity by adjusting on weight basis twice a week.
Soil samples were collected and were then thoroughly mixed and subsamples were extracted in a potassium chloride solution and analysed for mineral-N. Soil moisture content was also determined. Samples were taken at 30 days after the start of incubation. […]

nitrification = experiment: Table 1 summary: compounds found to work or not work as nitrification inhibitors, Inhib(%); design: concentration or dose not given beside the values; settings: test and rate not given
Protocol: The phenotypic screening involved assessing the nitrification inhibition potency of the selected 5000 compounds against a key ammonia oxidizing bacterium responsible for ammonia oxidation in the soil, Nitrosomonas europaea, in 96-well microtiter plates. N. europaea cells were grown in the presence of an ammonium source, and the potential of putative nitrification inhibitors to inhibit the production of nitrite (NO2) was measured relative to untreated cells.
A summary of selected compounds initially found to either work or not work as nitrification inhibitors is detailed in Table 1 below.

[2] = tested on: nitrification in the soil; experiment: Soil column study with static gas chambers (Study 2-14): nitrate-N and N2O emissions; settings: 10 kg/ha sprayed to soil surface, soil column
Protocol: To determine the effect of treating the soil with 4-Ethynylanisole on nitrification rate and nitrous oxide emissions, soil column studies with static gas chambers were conducted. The experiment was conducted in cylindrical PVC containers (Diameter=186 mm, Height=240 mm). The containers were filled with soil to half of the container's height (120 mm), leaving 120 mm headspace. The soil was Templeton sandy loam collected from Lincoln University Research Dairy Farm. It was screened using a 5 mm sieve and air-dried to the required moisture level and packed to bulk density of 1 g/cm3.
The experiment was conducted under controlled conditions. The temperature of the soil columns were maintained at around 12° C. by using a water bath to control the temperature.
The treatments included Control (Water), Control (animal urine), Control (urine+DMSO), Control (urine+DCD at 10 kg/ha) and urine+4-Ethynylanisole (10 kg/ha) in DMSO. Synthetic cow urine was applied at 700 kg N/ha (comprising about 87% urea-N and 13% glycine-N), and 4-Ethynylanisole was applied at 10 kg/ha. There were two sets of cores for each treatment, one set were fitted with static gas chambers with removable lids for nitrous oxide sampling, and the other set used for soil sampling. The urine was sprayed to the surface of the soil simulating urine deposition by a grazing animal; DMSO, or DCD or 4-Ethynylanisole mixed with DMSO was also sprayed onto the urine treated soils to simulate the treatment of urine patches. Nitrous oxide gas measurements followed these treatments—as is detailed further below.
For the soil columns that were set up for taking soil samples for analysis of mineral nitrogen, the different treatments were mixed with the soil for soil sampling. Soil moisture was adjusted to 100% field capacity (FC) and maintained between 80 and 100% FC over the duration of the experiment.
Nitrous oxide (N2O) gas sampling was conducted twice a week using the standard procedure (Di et al., 2007). Vials were evacuated prior to sampling. Three gas samples were taken with 20 minute intervals between each sampling. Sampling frequency was reduced to once a week when N2O fluxes decreased in intensity.
Soil sampling was conducted on Day 1, 7, 14, 30, and 60. The soil samples were analysed for mineral nitrogen.

[3] = relative to table salt; cited from earlier work
rats = settings: female rats; cited from earlier work
[4] = tested on: N2O emissions in the soil; experiment: Field study of nitrous oxide emissions, static gas chamber method, urine-treated pasture soil
Protocol: (§1) This study was conducted on the Lincoln University Research Dairy Farm, and the soil was a Templeton sandy loam with established perennial ryegrass (Lolium perenne) and white clover (Trifolium repens.) pasture. Metal rings (500 mm diameter and 200 mm height) were inserted into the ground. A water trough sitting on top of the metal rings allowed the placement of static chambers sitting on top of the water trough to provide a gas-tight seal to allow N2O gas sampling.
Synthetic urine with a nitrogen concentration of 7 g N/L was applied to the soil plots confined within the metal rings at the equivalent rate of 700 kg N/ha. […] The plots were irrigated with irrigation water in accordance with local dairy farming practice.
(§2) The gas chamber (500 mm diameter and 120 mm height) was constructed of a metal cylinder insulated with 2.5 cm thick polystyrene foam to avoid heating of the atmosphere in the chamber during sampling. During periods of N2O measurement, the edge of the chamber was placed inside the small water trough which was mounted around the top of each metal ring for gas sampling. At each sampling time, the chamber was placed on top of the soil ring for a total of 40 minutes, and 3 samples, 20 minutes apart, were taken using a syringe through a rubber septum on top of the gas chamber. Samples were taken twice weekly. Each sampling was carried out during the middle of the day between 12:00 h to 14:00 h (Di et al., 2007). The N2O concentration in the samples was analysed using a gas chromatograph (SRI8610C with an Electron Capture Detector (ECD) (SRI Instruments, USA) linked to a Gilson 222XL autosampler (Gilson, France)
as §1, with “To determine the effect of treating the soil with 2-ethynyl-5-methoxypyridine on nitrous oxide emissions under field soil conditions, a field study was conducted using the static gas chamber method. This” for “This”
Synthetic urine with a nitrogen concentration of 7 g N/L was applied to the soil plots confined within the metal rings at the equivalent rate of 700 kg N/ha. 196.25 mg or 39.2 mg of 2-ethynyl-5-methoxypyridine were dissolved in 2 mL DMSO, mixed with 1000 mL of water, and then sprayed on to the mini-plots at the rates of 196.25 mg/plot and 39.2 mg/plot, equivalent to 10 kg/ha and 2 kg/ha, respectively. The plots were irrigated with irrigation water in accordance with local dairy farming practice.
as §2, with “France).” for “France)”
To determine the effect of treating the soil with 3-ethynylpyridine 1-oxide on nitrous oxide emissions under field soil conditions, a field study was conducted using the static gas chamber method. […]

| Structure (SMILES) | nitrate-N concentration in the soil compared with urine alone or urine+DMSO ([1]; 1 kg/ha) | nitrate-N concentration in the soil compared with urine alone or urine+DMSO ([1]; 2 kg/ha) | melting point [°C] | reducing the nitrification rate compared with DCD [1] | Inhib(%) (nitrification) | further results |
| --- | --- | --- | --- | --- | --- | --- |
| C#Cc1ccc(OC)nn1 [3-Ethynyl-6-methoxypyridazine] | lower nitrate-N concentrations | lower nitrate-N concentrations | 51.7 to 53.1 |  |  |  |
| C#Cc1ncc(OC)cn1 [2-Ethynyl-5-methoxypyrimidine] | lower nitrate-N concentrations | significantly lower nitrate-N concentrations | 56.2 to 57.2 | more effective than DCD |  |  |
| C#Cc1cnc(OC)nc1 [5-Ethynyl-2-methoxypyrimidine] | lower nitrate-N concentrations | lower nitrate-N concentrations | 82.3 to 83.1 |  | 100 |  |
| N#CNC(=N)N [DCD, dicyandiamide] |  |  |  |  |  | N2O—N emissions lower than urine alone control [2]: 43.4%; toxicity rating [3]: 10 times less toxic than table salt; oral LD50 (rats): greater than 30,000 mg kg^−1 body weight |
| C#Cc1ccc[n+]([O-])c1 [3-ethynylpyridine 1-oxide] | lower nitrate-N concentrations | significantly lower nitrate-N concentrations |  | more effective than DCD | 100 | nitrate-N concentration in the soil compared with urine alone or urine+DMSO ([1]; 0.5 kg/ha): lower nitrate-N concentrations; % reduction by NI (nitrate-N) ([1]; 0.5 kg/ha): 43%; % reduction by NI (nitrate-N) ([1]; 1 kg/ha): 96%; % reduction by NI (nitrate-N) ([1]; 2 kg/ha): 97%; Nitrate-N ([1]; urine + inhibitor at 0.5 kg/ha): 224.4 mg N/kg soil; Nitrate-N ([1]; urine + inhibitor at 1 kg/ha): 20.8 mg N/kg soil; Nitrate-N ([1]; urine + inhibitor at 2 kg/ha): 8.2 mg N/kg soil; nitrous oxide reductions compared with DCD ([4]; sprayed onto urine-treated pasture soil): greater than that by DCD; N2O emissions ([4]; urine + inhibitor at 2 kg/ha): 3.6 kg N2O—N/ha; N2O emissions ([4]; urine + inhibitor at 10 kg/ha): 0.79 kg N2O—N/ha |
| C#Cc1cnc(OC)cn1 [2-Ethynyl-5-methoxypyrazine] | lower nitrate-N concentrations | lower nitrate-N concentrations | 41.3 to 42.7 |  |  |  |
